Reference: patent US20070249555A1, “Use of Atp Analogues for Treatment of Cardiovascular Diseases” (INSTITUT NATIONAL DE LA SANTE ET DE LA RECHERCHE MEDICALE …, priority 2004, published 2007)

Tests used:
human P2Y13 receptor = target: T1, human P2Y13 receptor (Homo sapiens, UniProt Q9BPV8); experiment: HDL3 internalization by HepG2 cells after P2Y13 receptor silencing by siRNA; type: cell-based; conditions: 75 μg/ml 125I-HDL3, ADP 100 nM, AR-C69931MX 100 nM
T1 construct: host or cells: HepG2
T1 sequence (Q9BPV8 1-354): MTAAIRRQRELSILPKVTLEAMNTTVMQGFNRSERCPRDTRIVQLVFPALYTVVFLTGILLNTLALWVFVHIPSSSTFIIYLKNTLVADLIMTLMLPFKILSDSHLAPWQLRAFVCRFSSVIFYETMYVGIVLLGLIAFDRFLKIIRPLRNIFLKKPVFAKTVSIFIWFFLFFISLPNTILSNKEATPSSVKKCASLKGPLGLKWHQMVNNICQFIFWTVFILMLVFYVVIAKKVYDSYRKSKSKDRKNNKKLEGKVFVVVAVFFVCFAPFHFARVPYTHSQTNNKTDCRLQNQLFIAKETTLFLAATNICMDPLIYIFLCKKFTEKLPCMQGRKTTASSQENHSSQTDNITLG
Protocol: Cells were transiently transfected with siRNA designated to human P2Y13 receptor (column c, d, e). 48 hours later, cells were incubated for 10 minutes at 37° C. with 75 μg/ml ^125I-HDL3 without (control) or with ADP 100 nM (a and c), AR-C69931MX 100 nM (b and d), PBS (e) (n>5); (*) p<0.05 (unpaired t-test).
Internalization assays were performed as described in Guendouzi et al., (Biochemistry, 1998, 37: 14974-80) on HepG2 cells, obtained from the American Type Culture Collection ([…]). Cells were incubated for 10 minutes at 37° C. with 75 μg/ml of either ^125I-TG-HDL2, ^125I-HDL3 or ^125I-LDL. After washing and dissociation at 4° C. in phosphate buffered saline (PBS), cell radioactivity was determined using a Wallac 1261 multigamma apparatus.
The silencing of the different P2Y receptors were carried-out using the siRNA technique. The siRNA sequenced targeting human P2Y13 receptor (Gene Bank GB/EMBL/DDBJ accession number AF295368) was from position 406 or 359 relative to the start codon. […]
Results are expressed as a percentage of internalization with respect to the control value (set at 0). […]

human P2Y12 receptor = human P2Y12 receptor (Homo sapiens, UniProt Q9H244); experiment: forskolin-induced cAMP formation in hP2Y12-CHO-K1 cells; type: cell-based
Chain of human P2Y12 receptor (Q9H244 whole entry, the tested form may be a part): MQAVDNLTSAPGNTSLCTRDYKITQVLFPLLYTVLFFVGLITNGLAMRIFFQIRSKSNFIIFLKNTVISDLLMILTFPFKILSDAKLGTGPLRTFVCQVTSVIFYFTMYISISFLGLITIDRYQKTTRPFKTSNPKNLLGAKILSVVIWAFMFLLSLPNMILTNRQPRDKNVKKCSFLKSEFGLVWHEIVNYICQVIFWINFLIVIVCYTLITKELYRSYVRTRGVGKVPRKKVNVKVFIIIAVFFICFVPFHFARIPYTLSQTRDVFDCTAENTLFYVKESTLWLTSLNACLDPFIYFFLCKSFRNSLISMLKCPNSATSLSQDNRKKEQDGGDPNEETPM
Protocol: FIG. 2C: Effect ADP (▴), AR-C69931MX (●) and ADP in presence of AR-C69931MX (100 nM) (▪) on forskolin (FSK: 3 μM)-induced cAMP formation in hP2Y12-CHO-K1 cells. The cells were incubated with various concentrations of these agents for 12 min. Data are expressed in % of the value with forskolin alone and presented as mean ±S.E.M. of 3 (ADP) or 2 (AR-C69931MX) independent experiments, each performed in triplicates.
The cyclic AMP assays was performed on CHO-K1 cell lines expressing recombinant P2Y receptors as follows.
The plasmid of human P2Y12 receptor (hP2Y12-pEFIN5) was obtained from Euroscreen (Gosselies, Belgium) and was stably transfected into CHO-K1 cells by using the FuGENETM6 transfection reagent (Roche Applied Science, Mannheim, Germany). Transfected cells were selected using G418 (400 μg/ml). The hP2Y13-CHO-K1 and HP2Y12-CHO-K1 cells were grown in Ham'S F12 cell culture medium (Invitrogen-France) supplemented with fetal bovine serum (10%, v/v), penicillin (100 units/ml), streptomycin (100 μg/ml) and G418 (400 μg/ml).
The stably transfected CHO-K1 cells (200,000 cells/dish) were seeded on 35-mm diameter cell culture dishes in complete medium one day before the experiment. […] Cyclic AMP was quantified by 125l radioimmunoassay, as described in Communi et al., J Biol Chem, 2001, 276: 41479-85.

[1] = tested on: liver of P2Y1-/- C57BL/6J mice; experiment: in situ TG-HDL2 endocytosis by perfused liver of P2Y1-/- mouse; type: in vivo; conditions: liver perfused in situ 10 min at 37° C., AR-C69931MX 10 μM
Protocol: FIG. 4C: The liver from P2Y1^−/−C57BL/6J male mice (25 weeks old) was perfused in situ for 10 minutes at 37° C. in HBSS medium with 75 μg/ml of ^125I-TG-HDL2 in the presence of PBS (a) or AR-C69931MX 10 μM (b). ^125I radioactivity associated with the livers was determined (n>3); (*) (p<0.05) (unpaired t-test).
The perfused mouse liver experiments were carried out on C57BL/6J male mice, 8 weeks old, (Charles River Cie) or P2Y1^−/− mouse, 25 weeks old. Mouse were anesthetized by intraperitoneal injections of 200 μl ketamine hydrochloride (Merial)-xylazine hydrochloride 2% (Bayer)-PBS (1:1:3 v/v). […] The livers were perfused in situ for 10 minutes at 37° C. in HBSS medium containing 75 μg/ml of ^125I-TG-HDL2 (5000 cpm/ng of proteins) or ^3H-cholesteryl-ether-TG-HDL2 (15000 dpm/mg of cholesteryl ester), with PBS apolipoprotein A-1 (ApoA-1, 10 μg/ml) or AR-C69931MX (10 μM).
Livers were extensively washed at 4° C. in PBS and radioactivity associated per […] of liver was counted, (n=7 per group). Values represent means ±SEM, with p<0.05 (unpaired t-test).

plain CHO-K1 cells = experiment: forskolin-induced cAMP accumulation in plain CHO-K1 cells (control); type: cell-based; conditions: untransfected control cells

SMILES	effect of P2Y13 receptor silencing on HDL3 internalization after stimulation (human P2Y13 receptor)	effect on ADP inhibition of cAMP accumulation (human P2Y12 receptor; AR-C69931MX 100 nM with ADP)	effect per se on cAMP accumulation by forskolin (human P2Y12 receptor; forskolin 3 μM, 12 min)	increase of TG-HDL2 internalization by the liver above the control [1] [%]	effect on cAMP accumulation in plain CHO-K1 cells (plain CHO-K1 cells)
Nc1ncnc2c1ncn2[C@@H]1O[C@H](COP(=O)(O)OP(=O)(O)O)[C@@H](O)[C@H]1O [ADP, adenosine diphosphate, reference compound]	strong inhibition	–	–	–	–
CSCCNc1nc(SCCC(F)(F)F)nc2c1ncn2[C@@H]1O[C@H](COP(=O)(O)OP(=O)(O)C(Cl)(Cl)P(=O)(O)O)[C@@H](O)[C@H]1O [AR-C69931MX, N-[2-(methylthio)ethyl]-2-[(3,3,3-trifluoropropyl)thio]-5′-adenylic acid, monoanhydride with dichloromethylenebisphosphonic acid]	strong inhibition	shifted the ADP inhibition to higher concentrations	no effect	38	no effect
